# Source: patent US12670969B2, “Network medicine framework for identifying drug repurposing opportunities” (Northeastern University, priority 2020, dated 2026)
# Experiments:
# [1] = system: SARS-CoV-2 strain USA-WA1/2020; assay type: cell-based; settings: VeroE6 cells, drugs from 8 μM down to 8 nM
# Caco-2 = Caco-2 cells; cited from earlier work
# SARS-CoV-2 = settings: positive control used at 5 μM; cited from earlier work
# Huh7 cells = settings: in high concentration
smiles,measurement,setting,value
CCOC(=O)N1CCC(=C2c3ccc(Cl)cc3CCc3cccnc32)CC1 [loratadine],"drug-response classification (S, W, C, N) of effect on SARS-CoV-2 infection",[1]; MOI about 0.2,N
same,viral activity in human cell line Caco-2,Caco-2,inhibited viral activity
CC(C)c1nc(CN(C)C(=O)N[C@H](C(=O)N[C@@H](Cc2ccccc2)C[C@H](O)[C@H](Cc2ccccc2)NC(=O)OCc2cncs2)C(C)C)cs1 [Ritonavir],"outcome in VeroE6 screen, in words",[1],no effect
CN(C)CCC=C1c2ccccc2CCc2ccccc21 [amitriptyline],"outcome in VeroE6 screen, in words",[1],S&W
CC(C)C[C@H](NC(=O)[C@H]1O[C@@H]1C(=O)O)C(=O)NCCCCN=C(N)N [E-64],"inhibition of SARS-CoV-2 infection, previously reported",SARS-CoV-2,inhibit SARS-CoV-2 infection
CC(=O)OC[C@H]1O[C@@H]([S-])[C@H](OC(C)=O)[C@@H](OC(C)=O)[C@@H]1OC(C)=O.CCP(CC)CC.[Au+] [auranofin],cytotoxicity in Huh7 cells (reduced nuclei count),Huh7 cells,tracing cytotoxicity
CCN(CC)CCCC(C)Nc1ccnc2cc(Cl)ccc12 (stereo not drawn) [chloroquine],"outcome in VeroE6 screen, in words",[1],positive outcomes
CN1CCCC(n2nc(Cc3ccc(Cl)cc3)c3ccccc3c2=O)CC1 (stereo not drawn) [azelastine],cytotoxicity in Huh7 cells (reduced nuclei count),Huh7 cells,tracing cytotoxicity
CCN(CCO)CCCC(C)Nc1ccnc2cc(Cl)ccc12 (stereo not drawn) [hydroxychloroquine],"outcome in VeroE6 screen, in words",[1],positive outcomes
